# Results from article PMC7738880, “Identification of novel CD44v6-binding peptides that block CD44v6 and deliver a pro-apoptotic peptide to tumors to inhibit tumor growth and metastasis in mice” (Theranostics, 2021).
# Residues, ends and D or L forms follow the SMILES beside them.
# Legend:
# [1] = system: CD44v6-knockdown MDA-MB231 cells; test: Peptide binding to CD44v6-knockdown cells (flow cytometry); format: cell-based, human; conditions: FITC-labeled peptide 25 µM, MDA-MB231, siRNA knockdown 24 h
# Experimental: Cells (1 × 10^5 cells) were harvested and suspended in culture medium containing 1% BSA for 1 h, followed by an incubation with FITC-labeled peptides (25 µM) at 4 °C for 1 h. After washing, the cells were analyzed using a FACSCalibur flow cytometer (BD, Franklin Lakes, NJ). For competition assays, cells were incubated with 5 µg/mL of an anti-human CD44v6 mouse monoclonal antibody (clone no. VFF-18, 1:100 dilution; Abcam, Cambridge, MA) and anti-human CD44 monoclonal antibody (clone no. 156-3C11, 1:100 dilution; ThermoFisher Scientific) for 1 h to compete with peptide binding, followed by an incubation with FITC-labeled peptides (10 µM) before analysis on a flow cytometer (BD). In another set of assays, cells were incubated with peptides (50 µM) for 1 h to compete with antibody binding, followed by an incubation with 5 µg/mL of the anti-human CD44v6 mouse monoclonal antibody for 1 h, The cells were then incubated with an Alexa Fluor 488-labeled goat anti-mouse IgG secondary antibody (Merck) before analysis on a flow cytometer (BD).
# CD44v6 gene expression was knocked down using CD44v6 small interfering RNAs (siRNAs) as previously described. Two CD44v6-specific siRNAs (v6-1: 5ʹ-AGU ACA ACG GAA ATT-3ʹ and v6-2: 5ʹ-GGA UAU CGC CAAACA CCC ATT-3ʹ) were synthesized by Bioneer (Daejeon, Korea). Control siRNA (5ʹ-CUA CGC CAA UUU CGU (dTdT)-3ʹ) were purchased from Bioneer. […]
# MDA-MB231 cells [2] = test: Transwell cell migration and invasion assays, MDA-MB231; format: cell-based, human; conditions: peptide 20 µM, HGF 25 ng/mL, 24 h
# Experimental: Transwell chambers (24-wells) with 8 μm pores were obtained from Corning (Corning, NY). MDA-MB231 and 4T1 cells (1 × 10^6 cells) were harvested, resuspended in 200 μL of DMEM containing CD44v6-binding peptides (20 µM), and then seeded into the upper chamber of the transwell chambers. The lower chamber was filled with 600 μL of DMEM containing 25 ng/mL HGF. After 24 h of incubation, cells that migrated into the reverse side of the transwell membrane were fixed with methanol, stained with crystal violet, and then counted under a light microscope. An average of five visual fields was obtained. For invasion assays, the transwell membrane was pre-coated with 300 µg/mL of Matrigel (Corning).
# c-Met in MDA-MB231 cells = test: HGF-induced c-Met internalization (confocal microscopy); format: cell-based, human; conditions: peptide pre-treatment 10 min, HGF 25 ng/mL 30 or 60 min
# Experimental: To examine the internalization of CD44v6, 1 × 10^5 MDA-MB231 cells were seeded in each well of an 8-well chamber slide and cultured for 24 h. Next, the cells were incubated with a fresh culture medium containing FITC-labeled peptides (10 μM) at 37 °C for 10, 30, and 60 min and then stained with an anti-human CD44v6 mouse monoclonal antibody (clone no. VFF-7; Santa Cruz Biotechnology). The cells were then incubated with an Alexa Fluor 594-labeled goat anti-mouse IgG secondary antibody (Merck). To examine the internalization of c-Met, cells were incubated with recombinant human HGF at 25 ng/mL (R&D Systems, Minneapolis, MN) for 30 or 60 min with or without pre-treatment with peptides (20 µM) for 10 min. After incubation, the cells were stained with an anti-Met rabbit polyclonal antibody (clone no. C-28, 1:100 dilution; Santa Cruz Biotechnology). The cells were then incubated with an Alexa Fluor 594-labeled goat anti-rabbit IgG secondary antibody (Merck). For nuclear staining, the cells were incubated with DAPI and the ProLong antifade reagent before observation under a confocal microscope (Zeiss).
# MDA-MB231 cells [3] = test: Saturation cell binding assay, MDA-MB231; design: species or system human; conditions: biotin-labeled peptide 0-256 µM, 4 °C, 1 h
# Experimental: Supplementary Information
# Supplementary Materials and Methods
# Saturation binding assays to determine the cellular binding affinities of peptides Cells (5 × 10^3 cells per well in a 96-well plate) were incubated with 1% bovine serum albumin (BSA) for 30 min and with different concentrations of biotin-labeled peptides (0, 2, 4, 8, 16, 32, 64, 128, and 256 µM) at 4 °C for 1 h. After washing, the cells were incubated with horseradish peroxidase-conjugated neutravidin (1:10,000 dilution; ThermoFisher Scientific, Waltham, MA) for 30 min at room temperature. Enzymatic activity was detected using a 3,3ʹ,5,5ʹ-tetramethylbenzidine substrate (ThermoFisher Scientific), and the reaction was stopped using 2 M sulfuric acid. The absorbance at 450 nm was measured in each well using a microplate reader (Tecan, Mannedorf, Switzerland). The KD values were then calculated using GraphPad Prism 6 software (GraphPad Inc., La Jolla, CA). […]
# 10 µM biotin-labeled CD44v6-binding peptides at 4 °C for 1 h. […]
# Scientific) for 30 min at room temperature. […]
# [4] = biological target: T1, recombinant human CD44v6-Fc protein (Homo sapiens, UniProt P16070); test: SPR analysis of peptide binding affinity to CD44v6-Fc; conditions: biotin-conjugated peptide on streptavidin chip, CD44v6-Fc 0.125-2 µM, steady-state 1:1 fit, pH 7.4
# T1 sequence (P16070 386-428 limits assumed): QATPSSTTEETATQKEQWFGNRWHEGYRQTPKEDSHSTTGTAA
# Experimental: The binding affinity (KD) of CD44v6-binding peptides to the CD44v6 protein was measured using an SPR instrument (Reichert Technologies, Depew, NY). A streptavidin chip was used as the immobilization substrate and exposed to biotin-labeled peptides (25 μΜ) at 5 μL/min for 50 min. The streptavidin only surface was used for the reference surface. All SPR signals were corrected by subtraction with the response of the reference surface. After washing, the chip was flowed with a solution of CD44v6-Fc or CD44-Fc protein (R&D Systems, Minneapolis, MN) in binding buffer (137 mM NaCl, 10 mM phosphate, 2.7 mM KCl pH 7.4, 62.5 µM BSA, and 0.005% Tween-20) at concentrations of 0.125, 0.25, 0.5, 1, and 2 μM at 10 μL/min for 3 min. Five concentrations (0.125, 0.25, 0.5, 1, and 2 µM) of CD44v6-Fc and CD44-Fc were used in a single-cycle dynamic SPR measurements. Resonance units were recorded and analyzed using Scrubber 2.0 software (BioLogic Software, Campbell, Australia). KD values were calculated by analyzing the steady-state binding data by fitting the curve of binding level against concentration with a 1:1 binding model (GraphPad Prism 7.0 software).
Compound,decrease of cellular binding to CD44v6-knockdown cells compared with wild-type cells [1],"HGF-induced cell migration and invasion, MDA-MB231 (MDA-MB231 cells [2])",HGF-induced internalization of c-Met (c-Met in MDA-MB231 cells),Kd (MDA-MB231 cells [3]) [µM],Kd [4] [µM]
CC(C)C[C@H](NC(=O)[C@H](CCC(N)=O)NC(=O)[C@H](Cc1c[nH]c2ccccc12)NC(=O)[C@H](CCC(=O)O)NC(=O)[C@H](CC(N)=O)NC(=O)[C@@H](N)CS)C(=O)N[C@@H](CCCCN)C(=O)N[C@@H](CO)C(=O)N[C@@H](CS)C(=O)O [NEW] (H-CNEWQLKSC-OH; N-terminus and C-terminus assumed),6-7 fold,inhibited,inhibited,18 ± 6,0.085 ± 0.018
CC[C@H](C)[C@H](NC(=O)[C@@H](NC(=O)[C@H](CC(N)=O)NC(=O)[C@H](CC(C)C)NC(=O)[C@H](CC(N)=O)NC(=O)[C@@H](N)CS)[C@@H](C)O)C(=O)N[C@@H](CC(=O)O)C(=O)N[C@H](C(=O)N[C@@H](CS)C(=O)O)[C@@H](C)O [NLN] (H-CNLNTIDTC-OH; N-terminus and C-terminus assumed),6-7 fold,inhibited,inhibited,12 ± 5,0.253 ± 0.079
